The record followed here is patent US12448382B2, “Heterocyclic compounds for mediating tyrosine kinase 2 activity” (GUANGZHOU INNOCARE PHARMA TECH CO., LTD., priority 2019, dated 2025).

The target of assay [1] is T1, human recombinant JAK2 protein (Homo sapiens, UniProt O60674).
T1 construct: purchased Carna Biosciences 08-045
Briefly: JAK2 Inhibition Assay (HTRF kinase assay). In kind it is biochemical. The settings on record: human recombinant JAK2, 2.5 μM ATP substrate solution. How it is done:
The effect of the compounds of the present invention on the enzymatic activity of JAK2 was assessed by detecting the substrate phosphorylation level in a kinase reaction using the HTRF kinase assay detection kit (Cisbio, Cat. No. 62TK0PEC).
(§1) The experimental method is generally described below:
A reaction buffer contained the following components: an enzyme reaction buffer (1×), 5 mM MgCl2, 1 mM DTT and 0.01% Brij35 from the kit. A JAK2 kinase solution contained a human recombinant JAK2 protein (Carna Biosciences, 08-045) diluted in the reaction buffer to 0.15 ng/μL. A substrate reaction solution contained 2.5 μM ATP and 0.25 μM of a biotinylated tyrosine kinase substrate from the kit in the reaction buffer. A detection solution contained 0.1 ng/μL Eu^3+-labeled cage antibody (Cisbio, 61T66KLB) and 12.5 nM streptavidin-labeled XL665 (Cisbio, 610SAXLB) in the reaction buffer.
(§2) The test compound was dissolved in DMSO to 10 μM, followed by a serial 4-fold dilution with DMSO to a minimum concentration of 0.061 nM. Each concentration was further diluted 40-fold with the reaction buffer.
To a 384-well assay plate (Corning, 3674) were added 4 μL of compound solution and 2 μL of JAK2 kinase solution. The mixture was mixed and incubated at room temperature for 15 minutes, and then added with 4 μL of the substrate reaction solution. After further incubation at room temperature for 30 minutes, the reaction mixture was added with an equal volume of 10 μL detection solution and allowed to stand at room temperature for 30 minutes. An Envision plate reader (Perkin Elmer) was then used to measure the progress of the reaction at 620 nm and 665 nm. The ratio of absorbances at 665 nm and 620 nm was positively correlated with the degree of substrate phosphorylation, therefore the activity of JAK2 kinase was detected. In the experiment, the group without JAK2 kinase protein was treated as the 100% inhibition group, and the group with JAK2 kinase protein but not the test compound was treated as the 0% inhibition group. The percentage of inhibition on JAK2 kinase activity by the test compound was calculated using the following formula: Percentage of inhibition=100−100*(ratiocompound−ratio100% inhibition)/(ratio0% inhibition−ratio100% inhibition)
The IC50 value of the test compound was calculated from 8 concentration points using the XLfit softwere (ID Business Solutions Ltd., UK) by the following formula: Y=Bottom+(Top−Bottom)/(1+10^((log IC50−X)×slope factor))
Where Y was the percentage of inhibition, X was the logarithm of the concentration of the test compound. Bottom was the bottom plateau value of the S-shaped curve, Top was the top plateau value of the S-shaped curve, and slope factor was the slope coefficient of the curve.
A general note: In TR-FRET formats the signal depends on donor and acceptor labels being close together.

Assay [2] deals with T2, human recombinant TYK2 protein (Homo sapiens, UniProt P29597).
T2 construct: purchased Carna Biosciences 08-147
T2 sequence (P29597 871-1187 limits assumed): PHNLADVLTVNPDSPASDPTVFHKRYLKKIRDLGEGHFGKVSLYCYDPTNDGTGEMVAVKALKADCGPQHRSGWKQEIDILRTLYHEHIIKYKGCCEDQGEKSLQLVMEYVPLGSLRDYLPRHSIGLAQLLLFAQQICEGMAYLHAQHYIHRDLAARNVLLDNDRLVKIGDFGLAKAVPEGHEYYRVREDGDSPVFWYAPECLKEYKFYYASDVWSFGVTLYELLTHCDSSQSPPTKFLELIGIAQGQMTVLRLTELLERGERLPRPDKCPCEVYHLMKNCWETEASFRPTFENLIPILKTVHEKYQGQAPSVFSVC
Briefly: TYK2 Inhibition Assay (HTRF kinase assay). The format is biochemical. The settings on record: human recombinant TYK2, 11.25 μM ATP substrate solution. As to the method:
The effect of the compounds of the present invention on the enzymatic activity of TYK2 was assessed by detecting the substrate phosphorylation level in a kinase reaction using the HTRF kinase assay detection kit (Cisbio, Cat. No. 62TK0PEC).
as §1
A reaction buffer contained the following components: an enzyme reaction buffer (1×), 5 mM MgCl2 mM DTT and 0.01% Brij35 from the kit. A TYK2 kinase solution contained human recombinant TYK2 protein (Carna Biosciences, 08-147) diluted in the reaction buffer to 0.25 ng/μL. A substrate reaction solution contained 11.25 μM ATP and 0.5 μM of a biotinylated tyrosine kinase substrate from the kit in the reaction buffer. A detection solution contained 0.1 ng/μL Eu^3+-labeled cage antibody (Cisbio, 61T66KLB) and 25 nM streptavidin-1 added XL665 (Cisbio, 610SAXLB) in the reaction buffer.
as §2
To a 384-well assay plate (Corning, 3674) were added 4 μL of compound solution and 2 μL of TYK2 kinase solution. The mixture was mixed and incubated at room temperature for 15 minutes, and then added with 4 μL of the substrate reaction solution. After further incubation at room temperature for 40 minutes, the reaction mixture was added with an equal volume of 10 μL detection solution and allowed to stand at room temperature for 30 minutes. An Envision plate reader (Perkin Elmer) was then used to measure the progress of the reaction at 620 nm and 665 nm. The ratio of absorbances at 665 nm and 620 nm was positively correlated with the degree of substrate phosphorylation, therefore the activity of TYK2 kinase was detected. In the experiment, the group without TYK2 kinase protein was treated as the 100% inhibition group, and the group with TYK2 kinase protein but not the test compound was treated as the 0% inhibition group. The percentage of inhibition on TYK2 kinase activity by the test, compound was calculated using the following formula: Percentage of inhibition=100−100*(ratiocompound−ratio100% inhibition)/(ratio0% inhibition−ratio100% inhibition)
The IC50 value of the test compound was calculated from 8 concentration points using the XLfit software (ID Business Solutions Ltd., UK) by the following formula: Y=Bottom+(Top−Bottom)/(1+10^((log IC50−X)slope factor))
Where Y was the percentage of inhibition, X was the logarithm of the concentration of the test compound, Bottom was the bottom plateau value of the S-shaped curve, Top was the top plateau value of the S-shaped curve, and slope factor was the slope coefficient of the curve.

T1 sequence (O60674 826-1132 limits assumed): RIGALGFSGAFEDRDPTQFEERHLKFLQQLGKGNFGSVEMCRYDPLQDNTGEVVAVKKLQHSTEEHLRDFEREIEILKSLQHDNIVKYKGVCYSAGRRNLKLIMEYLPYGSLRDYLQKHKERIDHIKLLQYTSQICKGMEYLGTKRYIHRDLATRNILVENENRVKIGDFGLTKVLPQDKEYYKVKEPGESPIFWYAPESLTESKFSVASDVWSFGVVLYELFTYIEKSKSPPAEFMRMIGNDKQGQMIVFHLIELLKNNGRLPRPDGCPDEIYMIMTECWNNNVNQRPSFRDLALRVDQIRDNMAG

For `Cn1cc(Nc2ncc(Cl)c(N3C[C@]4(C)CN(Cc5ncn(C)n5)C[C@]4(C)C3)n2)cn1` [Compound 77, 5-chloro-4-((3aR,6aS)-3a,6a-dimethyl-5-((1-methyl-1H-1,2,4-triazol-3-yl)methyl)hexahydropyrrolo[3,4-c]pyrrol-2(1H)-yl)-N-(1-methyl-1H-pyrazol-4-yl)pyrimidin-2-amine], the IC50 in assay [1] came to 136 nM; in assay [2] it was 30 nM.
For `Cn1cc(Nc2nccc(N3C[C@]4(C)CN(C(=O)C(F)(F)F)C[C@]4(C)C3)n2)cn1` [Compound 4, 1-((3aR,6aS)-3a,6a-dimethyl-5-(2((1-methyl-1H-pyrazol-4-yl)amino)pyrimidin-4-yl)hexahydropyrrolo[3,4-c]pyrrol-2(1H)-yl)-2,2,2-trifluoroethan-1-one], the IC50 in assay [1] amounted to 126 nM; in assay [2], 49 nM.
For `Cn1cc(Nc2ncc(Cl)c(N3C[C@]4(C)CN(Cc5ccn(C)n5)C[C@]4(C)C3)n2)cn1` [Compound 75, 5-chloro-4-((3aR,6aS)-3a,6a-dimethyl-5-((1-methyl-1H-pyrazol-3-yl)methyl)hexahydropyrrolo[3,4-c]pyrrol-2(1H)-yl)-N-(1-methyl-1H-pyrazol-4-yl)pyrimidin-2-amine] the same measures were 325 nM and 98 nM.
For `Cn1cc(Nc2nccc(N3C[C@]4(C)CN(C(=O)NCC#N)C[C@]4(C)C3)n2)cn1` [Compound 8, (3aR,6aS)-N-(cyanomethyl)-3a,6a-dimethyl-5-(2-((1-methyl-IH-pyrazol-4-yl)amino)pyrimidin-4-yl)hexahydropyrrolo[3,4-c]pyrrole-2(1H)-carboxamide], the concentration for half-maximal inhibition (IC50) in assay [1] was 25 nM; in assay [2] it was 66 nM.
On the same counts, the results for `Cn1cc(Nc2ncc(Cl)c(N3C[C@]4(C)CN(CCO)C[C@]4(C)C3)n2)cn1` [Compound 49, 2-((3aR,6aS)-5-(5-chloro-2-((1-methyl-1H-pyrazol-4-yl)amino)pyrimidin-4-yl)-3a,6a-dimethylhexahydropyrrolo[3,4-c]pyrrol-2(1H)-yl)ethan-1-ol] are 71 nM and 52 nM.
On the same counts, the results for `Cc1cc(Nc2ncc(Cl)c(N3C[C@]4(C)CN(C(=O)C5CC5)C[C@]4(C)C3)n2)no1` [Compound 93] are 91 nM and 158 nM.
For `Cn1cc(Nc2ncc(Cl)c(N3C[C@]4(C)CN(C(=O)C5CNC5)C[C@]4(C)C3)n2)cn1` [Compound 38, azetidin-3-yl((3aR,6aS)-5-(5-chloro-2-((1-methyl-1H-pyrazol-4-yl)amino)pyrimidin-4-yl)-3a,6a-dimethylhexahydropyrrolo[3,4-c]pyrrol-2(1H)-yl)methanone] the same measures were 50 nM and 43 nM.
Turning to `Cn1cc(Nc2ncc(C#N)c(N3C[C@]4(C)CN(C(=O)C5CC5)C[C@]4(C)C3)n2)cn1` [Compound 15, 4-((3aR,6aS)-5-(cyclopropanecarbonyl)-3a,6a-dimethlhexahydropyrrolo[3,4-c]pyrrol-2(1H)-yl)-2-((1-methyl-1H-pyrazol-4-yl)amino)pyrimidine-5-carbonitrile], the IC50 was 551 nM in assay [1] and 186 nM in assay [2].
On the same counts, the results for `Cn1cc(Nc2nccc(N3C[C@]4(C)CN(C(=O)C5CC5(F)F)C[C@]4(C)C3)n2)cn1` (stereo partly drawn) [Compound 5, (2,2-difluorocyclopropyl)((3aR,6aS)-3a,6a-dimethyl-5-(2-((1-methyl-1H-pyrazol-4-yl)amino)pyrimidine-4-yl)hexahydropyrrolo[3,4-c]pyrrole-2(1H)-yl)methanone] are 82 nM and 75 nM.
For `C[C@@]12CN(C(=O)C3CC3)C[C@]1(C)CN(c1ccnc(Nc3ccc(C(=O)O)cc3)n1)C2` [Compound 2] the same measures were 478 nM and 62 nM.
On to `Cn1cc(Nc2nccc(N3C[C@]4(C)CN(CCC#N)C[C@]4(C)C3)n2)cn1` [Compound 7, 3-((3aR,6aS)-3a,6a-dimethyl-5-(2-((1-methyl-1H-pyrazol-4-yl)amino)pyrimidin-4-yl)hexahydropyrrolo[3,4-c]pyrrol-2(1H)-yl)propanenitrile], for which the concentration for half-maximal inhibition (IC50) in assay [1] is 138 nM; in assay [2] it was 186 nM.
With `CCNC(=O)c1ccc(Nc2ncc(F)c(N3C[C@H]4CN(C(=O)C5CC5(F)F)C[C@H]4C3)n2)cc1` (stereo partly shown) [Compound 9], the concentration for half-maximal inhibition (IC50) is 38 nM in assay [1] and 13 nM in assay [2].
Turning to “5-chloro-4-((3aR,6aS)-3a,6a-dimethyl-5-((1-methyl-IH-pyrazol-4-yl)methyl)hexahydropyrrolo[3,4-c]pyrrol-2(1H)-yl)-N-(1-methyl-1H-pyrazol-4-yl)pyrimidin-2-amine [Compound 76]”, the IC50 amounted to 475 nM in assay [1] and 149 nM in assay [2].
On the same counts, the results for `Cn1cc(Nc2nccc(N3C[C@]4(C)CN(C(=O)C5CC5)C[C@]4(C)C3)n2)cn1` [Compound 1, cyc1opropyl((3aR,6aS)-3a,6a-dimethyl-5-(2((1-methyl-1H-pyrazol-4-yl)amino)pyrimidin-4-yl)hexahydropyrrolo[3,4-c]pyrrol-2(1H)-yl)methanone] are 319 nM and 125 nM.
Take `COc1cnc(Nc2cnn(C)c2)nc1N1C[C@]2(C)CN(C(=O)CC#N)C[C@]2(C)C1` [Compound 97, 3-((3aR,6aS)-5-(5-methoxy-2-((1-methyl-1H-pyrazol-4-yl)amino)pyrimidin-4-yl)-3a,6a-dimethylhexahydropyrrolo[3,4-c]pyrrol-2(1H)-yl)-3-oxopropanenitrile]: the IC50 in assay [1] was found to be 8.1 nM; in assay [2], 56 nM.
For `CCOC(=O)N1C[C@@]2(C)CN(c3ccnc(Nc4cnn(C)c4)n3)C[C@@]2(C)C1` [Compound 6, ethyl (3aR,6aS)-3a,6a-dimethyl-5-(2-((1-methyl-1H-pyrazol-4-yl)amino)pyrimidin-4-yl)hexahydropyrrol[3,4-c]pyrrole-2(1H)-carboxylate] the same measures were 113 nM and 127 nM.
For the molecule `Cn1ccc(Nc2ncc(Cl)c(N3C[C@]4(C)CN(C(=O)C5CC5)C[C@]4(C)C3)n2)n1` [Compound 94, ((3aR,6aS)-5-(5-chloro-2-((1-methyl-1H-pyrazol-3-yl)amino)pyrimidin-4-yl)-3a,6a-dimethylhexahydropyrrolo[3,4-c]pyrrol-2(1H)-yl)(cyclopropyl)methanone], the IC50 in assay [1] amounted to 34 nM; in assay [2] it was 224 nM.

A word on the IC50: it is the midpoint of a concentration-inhibition curve.
